Reference: publication PMC3933693, “Novel Inhibitors of Mitochondrial sn-Glycerol 3-phosphate Dehydrogenase” (PLoS ONE, 2014)
Where two headings read alike, the source gives them in different places.

Target: T1, mGPDH (Rattus norvegicus, UniProt P35571)
T1 construct: Activity of mGPDH in frozen-thawed skeletal muscle mitochondria was measured; from tissue; host or cells: skeletal muscle mitochondria
T1 sequence (P35571 43-727): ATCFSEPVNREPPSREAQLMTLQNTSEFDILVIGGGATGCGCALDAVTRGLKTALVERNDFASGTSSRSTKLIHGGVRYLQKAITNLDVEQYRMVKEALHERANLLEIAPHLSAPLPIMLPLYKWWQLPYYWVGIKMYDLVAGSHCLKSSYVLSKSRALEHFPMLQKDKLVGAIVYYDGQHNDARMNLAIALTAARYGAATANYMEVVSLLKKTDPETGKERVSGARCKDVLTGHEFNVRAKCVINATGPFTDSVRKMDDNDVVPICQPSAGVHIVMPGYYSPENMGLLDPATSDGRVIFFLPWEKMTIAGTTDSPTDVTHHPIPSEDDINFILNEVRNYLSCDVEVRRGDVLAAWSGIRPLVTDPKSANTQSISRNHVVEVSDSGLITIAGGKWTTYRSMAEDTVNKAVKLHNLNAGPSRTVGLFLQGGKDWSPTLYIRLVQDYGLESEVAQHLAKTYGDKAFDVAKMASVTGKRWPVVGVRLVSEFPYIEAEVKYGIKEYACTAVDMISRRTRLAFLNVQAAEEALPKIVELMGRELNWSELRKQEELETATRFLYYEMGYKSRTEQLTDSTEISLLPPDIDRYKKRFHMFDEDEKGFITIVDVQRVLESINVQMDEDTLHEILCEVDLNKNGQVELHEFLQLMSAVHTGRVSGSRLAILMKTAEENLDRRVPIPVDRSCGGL
Test: Superoxide/H2O2 production by mGPDH in isolated skeletal muscle mitochondria (Amplex UltraRed)
Format: biochemical

Structure (SMILES): O=C(O)CCC(=O)Nc1ccc(-c2nc3ccccc3[nH]2)cc1 [iGP-1]
- IC50 (Fig. 4 structure/activity microplate assay, 0.08–80 µM, estimated, means of two replicates, read-out: mGPDH H2O2 production IC50): 8 µM
- IC50 (Fig. 9B, read-out: mGPDH H2O2 Production IC50): 13.6 ± 1.3 µM
- mGPDH (% change from DMSO) (primary screen, ∼2.5 µM, average of duplicates, 16.7 mM glycerol phosphate, no added calcium): -21.6%
- inhibition at 80 µM (read-out: mGPDH H2O2 production (% change at 80 μM)): 55%
- IC50 (titration up to 80 µM (Fig. 6B, Fig. 7B), read-out: half-maximal effect on H2O2 production by mGPDH): ~8 µM
